In ChEMBL document CHEMBL3885881, “DrugMatrix”:

Organism: Rattus norvegicus
Experiment: DrugMatrix - Regimen: Daily Repeat
Type: toxicity, organism-based, Sprague-Dawley
Parameters: regimen Daily Repeat, gender Male, age 6-8 weeks
Conditions: in vivo, po, route oral GAVAGE, vehicle .5 % CMC; for BASOPHIL / EOSINOPHIL / ERYTHROCYTE COUNT / HEMATOCRIT / HEMOGLOBIN / LEUKOCYTE COUNT / LYMPHOCYTE / MEAN CORPUSCULAR HEMOGLOBIN / MEAN CORPUSCULAR HEMOGLOBIN CONCENTRATION / MEAN CORPUSCULAR VOLUME / MONOCYTE / NEUTROPHIL / PLATELET COUNT: tissue Blood; for ALANINE AMINOTRANSFERASE / ALBUMIN / ALKALINE PHOSPHATASE / ASPARTATE AMINOTRANSFERASE / BLOOD UREA NITROGEN / CHLORIDE / CHOLESTEROL / CREATINE PHOSPHOKINASE / CREATININE / GLUCOSE / PHOSPHORUS / POTASSIUM / SODIUM / TOTAL BILIRUBIN / TOTAL PROTEIN: tissue Plasma
[1] = 750 mg/kg, 120 h, dose level Low, time 5 day
[2] = 2000 mg/kg, 72 h, dose level High, time 3 day
[3] = 2000 mg/kg, 120 h, dose level High, time 5 day

`NCC(=O)O` [GLYCINE] was tested, and the BASOPHIL [1] was 0%, the EOSINOPHIL [1] was 0% and the “ERYTHROCYTE COUNT” value [1] was 6.26 x10E6/uL. The HEMATOCRIT [1] was 38.2%, the HEMOGLOBIN [1] was 15 G/DL and the “LEUKOCYTE COUNT” value [1] was 13 x10E3/uL. The LYMPHOCYTE [1] was 89.67%, the “MEAN CORPUSCULAR HEMOGLOBIN” value [1] was 23.97 pg and the “MEAN CORPUSCULAR HEMOGLOBIN CONCENTRATION” value [1] was 39.27 G/DL. For the same compound, the “MEAN CORPUSCULAR VOLUME” value [1] was 61.1 fL, the MONOCYTE [1] was 0.33% and the NEUTROPHIL [1] was 10%. The “PLATELET COUNT” value [1] was 1041.67 x10E3/uL, the “ALANINE AMINOTRANSFERASE” value [1] was 32 u/L and the ALBUMIN [1] was 3.73 G/DL. The “ALKALINE PHOSPHATASE” value [1] was 311.33 u/L, the “ASPARTATE AMINOTRANSFERASE” value [1] was 55.33 u/L and the “BLOOD UREA NITROGEN” value [1] was 12.33 mg/dL. The CHLORIDE [1] was 99.33 MEQ/L, the CHOLESTEROL [1] was 59.67 mg/dL and the “CREATINE PHOSPHOKINASE” value [1] was 148 u/L. The CREATININE [1] was 0.57 mg/dL, the GLUCOSE [1] was 154 mg/dL and the PHOSPHORUS [1] was 11.67 mg/dL. For the same compound, the POTASSIUM [1] was 5.97 MEQ/L, the SODIUM [1] was 144.33 MEQ/L and the “TOTAL BILIRUBIN” value [1] was 0.33 mg/dL. For the same compound, the “TOTAL PROTEIN” value [1] was 6.07 G/DL, the BASOPHIL [2] was 0% and the EOSINOPHIL [2] was 0%. For the same compound, the “ERYTHROCYTE COUNT” value [2] was 6.16 x10E6/uL, the HEMATOCRIT [2] was 36.47% and the HEMOGLOBIN [2] was 14 G/DL. For the same compound, the “LEUKOCYTE COUNT” value [2] was 12.17 x10E3/uL, the LYMPHOCYTE [2] was 89.67% and the “MEAN CORPUSCULAR HEMOGLOBIN” value [2] was 22.77 pg. For the same compound, the “MEAN CORPUSCULAR HEMOGLOBIN CONCENTRATION” value [2] was 38.4 G/DL, the “MEAN CORPUSCULAR VOLUME” value [2] was 59.23 fL and the MONOCYTE [2] was 1.33%. For the same compound, the NEUTROPHIL [2] was 9%, the “PLATELET COUNT” value [2] was 1124.67 x10E3/uL and the “ALANINE AMINOTRANSFERASE” value [2] was 31.33 u/L. For the same compound, the ALBUMIN [2] was 3.53 G/DL, the “ALKALINE PHOSPHATASE” value [2] was 262.33 u/L and the “ASPARTATE AMINOTRANSFERASE” value [2] was 51.67 u/L. For the same compound, the “BLOOD UREA NITROGEN” value [2] was 12 mg/dL, the CHLORIDE [2] was 100.33 MEQ/L and the CHOLESTEROL [2] was 57.33 mg/dL. The “CREATINE PHOSPHOKINASE” value [2] was 113.33 u/L, the CREATININE [2] was 0.37 mg/dL and the GLUCOSE [2] was 157.67 mg/dL. It also gave a PHOSPHORUS [2] of 12.17 mg/dL, a POTASSIUM [2] of 6.6 MEQ/L and an SODIUM [2] of 145.67 MEQ/L. The “TOTAL BILIRUBIN” value [2] was 0.2 mg/dL, the “TOTAL PROTEIN” value [2] was 5.57 G/DL and the BASOPHIL [3] was 0%. For the same compound, the EOSINOPHIL [3] was 0.33%, the “ERYTHROCYTE COUNT” value [3] was 6.21 x10E6/uL and the HEMATOCRIT [3] was 36.87%. The HEMOGLOBIN [3] was 14.97 G/DL, the “LEUKOCYTE COUNT” value [3] was 15.13 x10E3/uL and the LYMPHOCYTE [3] was 88.67%. For the same compound, the “MEAN CORPUSCULAR HEMOGLOBIN” value [3] was 24.1 pg, the “MEAN CORPUSCULAR HEMOGLOBIN CONCENTRATION” value [3] was 40.6 G/DL and the “MEAN CORPUSCULAR VOLUME” value [3] was 59.4 fL. For the same compound, the MONOCYTE [3] was 1.33%, the NEUTROPHIL [3] was 9.67% and the “PLATELET COUNT” value [3] was 1238.67 x10E3/uL. For the same compound, the “ALANINE AMINOTRANSFERASE” value [3] was 33.67 u/L, the ALBUMIN [3] was 3.63 G/DL and the “ALKALINE PHOSPHATASE” value [3] was 237 u/L. The “ASPARTATE AMINOTRANSFERASE” value [3] was 55.67 u/L, the “BLOOD UREA NITROGEN” value [3] was 12.33 mg/dL and the CHLORIDE [3] was 100.67 MEQ/L. For the same compound, the CHOLESTEROL [3] was 62 mg/dL, the “CREATINE PHOSPHOKINASE” value [3] was 118.67 u/L and the CREATININE [3] was 0.5 mg/dL. The GLUCOSE [3] was 159.67 mg/dL, the PHOSPHORUS [3] was 11.77 mg/dL and the POTASSIUM [3] was 6.63 MEQ/L. For the same compound, the SODIUM [3] was 146.67 MEQ/L, the “TOTAL BILIRUBIN” value [3] was 0.27 mg/dL and the “TOTAL PROTEIN” value [3] was 5.93 G/DL.
